{"source": "patent US20260015358A1", "about": "“BICYCLIC DERIVATIVES, COMPOSITIONS AND USES THEREOF” (Danatlas Pharmaceuticals Co., Ltd., priority 2023, published 2026)", "key": {"[1]": {"target": "T1, WRN [UniPro: Q14191 (WRN_HUMAN), N500-C946] (Homo sapiens (Human), UniProt Q14191)", "T1 sequence (Q14191 500-946)": "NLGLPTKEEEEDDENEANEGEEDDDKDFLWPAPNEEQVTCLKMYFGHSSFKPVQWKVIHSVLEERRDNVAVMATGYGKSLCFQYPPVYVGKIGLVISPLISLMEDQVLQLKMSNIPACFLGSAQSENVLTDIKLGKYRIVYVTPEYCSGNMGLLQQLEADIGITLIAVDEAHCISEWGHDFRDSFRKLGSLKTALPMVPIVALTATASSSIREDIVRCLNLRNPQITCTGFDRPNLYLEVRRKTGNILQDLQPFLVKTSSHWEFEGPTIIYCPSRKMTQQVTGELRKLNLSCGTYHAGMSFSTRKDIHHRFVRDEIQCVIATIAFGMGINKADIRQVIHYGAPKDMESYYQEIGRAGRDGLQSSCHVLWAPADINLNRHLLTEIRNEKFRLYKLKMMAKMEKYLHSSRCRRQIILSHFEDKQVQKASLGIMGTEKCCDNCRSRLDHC", "assay": "WRN ATPase assay (ADP-Glo)", "format": "biochemical", "conditions": "WRN enzymatic activity assay"}, "[2]": {"target": "T1, WRN [UniPro: Q14191 (WRN_HUMAN), N500-C946]", "assay": "WRN unwinding assay (FORKF DNA, fluorescence)", "format": "biochemical", "conditions": "Table 14"}}, "data": [{"compound": "CCc1c(N2CCN(C(=O)c3nnc(C(F)F)[nH]3)CC2)c(=O)n2nc(C3=CCOCC3)nc2n1CC(=O)Nc1ccc(C(F)(F)F)cc1F", "note": "[Example 310, 2-(6-(4-(5-(Difluoromethyl)-4H-1,2,4-triazole-3-carbonyl)piperazin-1-yl)-2-(3,6-dihydro-2H-pyran-4-yl)-5-ethyl-7-oxo-[1,2,4]triazolo[1,5-a]pyrimidin-4(7H)-yl)-N-(2-fluoro-4-(trifluoromethyl)phenyl)acetamide]", "values": [{"measurement": "IC50", "setting": "[1]", "value": "< 100", "unit": "nM"}, {"measurement": "IC50", "setting": "[2]", "value": "< 100", "unit": "nM"}]}, {"compound": "CCc1c(N2CCN(C(=O)c3nnc(C(F)(F)F)[nH]3)CC2)c(=O)n2nc(C3=CCOCC3)nc2n1CC(=O)Nc1ccc(C(F)(F)F)cc1F", "note": "[Example 311, 2-(2-(3,6-Dihydro-2H-pyran-4-yl)-5-ethyl-7-oxo-6-(4-(5-(trifluoromethyl)-4H-1,2,4-triazole-3-carbonyl)piperazin-1-yl)-[1,2,4]triazolo[1,5-a]pyrimidin-4(7H)-yl)-N-(2-fluoro-4-(trifluoromethyl)phenyl)acetamide]", "values": [{"measurement": "IC50", "setting": "[1]", "value": "< 100", "unit": "nM"}, {"measurement": "IC50", "setting": "[2]", "value": "< 100", "unit": "nM"}]}, {"compound": "CCc1c(N2CCN(C(=O)c3nnc(C)[nH]3)CC2)c(=O)n2nc(C3=CCOCC3)nc2n1CC(=O)Nc1ccc(C(F)(F)F)cc1F", "note": "[Example 312, 2-(2-(3,6-Dihydro-2H-pyran-4-yl)-5-ethyl-6-(4-(5-methyl-4H-1,2,4-triazole-3-carbonyl)piperazin-1-yl)-7-oxo-[1,2,4]triazolo[1,5-a]pyrimidin-4(7H)-yl)-N-(2-fluoro-4-(trifluoromethyl)phenyl)acetamide]", "values": [{"measurement": "IC50", "setting": "[1]", "value": "100 to 1000", "unit": "nM"}, {"measurement": "IC50", "setting": "[2]", "value": "100 to 1000", "unit": "nM"}]}, {"compound": "CCc1c(N2CCN(C(=O)c3cc4cnccc4[nH]3)CC2)c(=O)n2nc(C3=CCOCC3)nc2n1CC(=O)Nc1ccc(C(F)(F)F)cc1Cl", "note": "[Example 313, 2-(6-(4-(1H-Pyrrolo[3,2-c]pyridine-2-carbonyl)piperazin-1-yl)-2-(3,6-dihydro-2H-pyran-4-yl)-5-ethyl-7-oxo-[1,2,4]triazolo[1,5-a]pyrimidin-4(7H)-yl)-N-(2-chloro-4-(trifluoromethyl)phenyl)acetamide]", "values": [{"measurement": "IC50", "setting": "[1]", "value": "100 to 1000", "unit": "nM"}, {"measurement": "IC50", "setting": "[2]", "value": "100 to 1000", "unit": "nM"}]}, {"compound": "CCc1c(N2CCN(C(=O)c3c(OC)cn[nH]c3=O)CC2)c(=O)n2nc(C3=CCOCC3)nc2n1CC(=O)Nc1ccc(C(F)(F)F)cc1Cl", "note": "[Example 314, N-(2-Chloro-4-(trifluoromethyl)phenyl)-2-(2-(3,6-dihydro-2H-pyran-4-yl)-5-ethyl-6-(4-(3-hydroxy-5-methoxypyridazine-4-carbonyl)piperazin-1-yl)-7-oxo-[1,2,4]triazolo[1,5-a]pyrimidin-4(7H)-yl)acetamide]", "values": [{"measurement": "IC50", "setting": "[1]", "value": "100 to 1000", "unit": "nM"}, {"measurement": "IC50", "setting": "[2]", "value": "> 1000", "unit": "nM"}]}, {"compound": "CCc1c(N2CCN(C(=O)c3cnn4cccc4c3O)CC2)c(=O)n2nc(C3=CCOCC3)nc2n1CC(=O)Nc1ccc(C(F)(F)F)cc1F", "note": "[Example 318, 2-(2-(3,6-Dihydro-2H-pyran-4-yl)-5-ethyl-6-(4-(4-hydroxypyrrolo[1,2-b]pyridazine-3-carbonyl)piperazin-1-yl)-7-oxo-[1,2,4]triazolo[1,5-a]pyrimidin-4(7H)-yl)-N-(2-fluoro-4-(trifluoromethyl)phenyl)acetamide]", "values": [{"measurement": "IC50", "setting": "[1]", "value": "< 100", "unit": "nM"}, {"measurement": "IC50", "setting": "[2]", "value": "< 100", "unit": "nM"}]}, {"compound": "CCc1c(N2CCN(C(=O)CNC(=O)c3c(F)cccc3Cl)CC2)c(=O)n2nc(C3=CCOCC3)nc2n1CC(=O)Nc1ccc(C(F)(F)F)cc1Cl", "note": "[Example 319, 2-Chloro-N-(2-(4-(4-(2-((2-chloro-4-(trifluoromethyl)phenyl)amino)-2-oxoethyl)-2-(3,6-dihydro-2H-pyran-4-yl)-5-ethyl-7-oxo-4,7-dihydro-[1,2,4]triazolo[1,5-a]pyrimidin-6-yl)piperazin-1-yl)-2-oxoethyl)-6-fluorobenzamide]", "values": [{"measurement": "IC50", "setting": "[1]", "value": "< 100", "unit": "nM"}, {"measurement": "IC50", "setting": "[2]", "value": "< 100", "unit": "nM"}]}, {"compound": "CCc1c(N2CCN(C(=O)CNC(=O)CC(C)C)CC2)c(=O)n2nc(C3=CCOCC3)nc2n1CC(=O)Nc1ccc(C(F)(F)F)cc1Cl", "note": "[Example 320, N-(2-(4-(4-(2-((2-Chloro-4-(Trifluoromethyl)phenyl)amino)-2-oxoethyl)-2-(3,6-dihydro-2H-pyran-4-yl)-5-ethyl-7-oxo-4,7-dihydro-[1,2,4]triazolo[1,5-a]pyrimidin-6-yl)piperazin-1-yl)-2-oxoethyl)-3-methylbutanamide]", "values": [{"measurement": "IC50", "setting": "[1]", "value": "< 100", "unit": "nM"}, {"measurement": "IC50", "setting": "[2]", "value": "< 100", "unit": "nM"}]}]}
